Experiments:
Cholinesterase [1] = molecular target: T1, Cholinesterase (Homo sapiens, UniProt P06276); assay: Inhibition of human plasma BuChE using butyrylthiocholine iodine as substrate pretreated for 10 mins followed by substrate addition measured for 5 mins by Ellman's method
Cholinesterase [2] = molecular target: T2, Cholinesterase (Equus caballus, UniProt P81908); assay: Inhibition of equine serum BChE using butyrylthiocholine iodide as substrate
Acetylcholinesterase [3] = molecular target: T3, Acetylcholinesterase (Bos taurus, UniProt P23795); assay: Inhibition of fetal bovine serum AChE using acetylthiocholine iodide as substrate
T3 sequence (P23795 whole entry): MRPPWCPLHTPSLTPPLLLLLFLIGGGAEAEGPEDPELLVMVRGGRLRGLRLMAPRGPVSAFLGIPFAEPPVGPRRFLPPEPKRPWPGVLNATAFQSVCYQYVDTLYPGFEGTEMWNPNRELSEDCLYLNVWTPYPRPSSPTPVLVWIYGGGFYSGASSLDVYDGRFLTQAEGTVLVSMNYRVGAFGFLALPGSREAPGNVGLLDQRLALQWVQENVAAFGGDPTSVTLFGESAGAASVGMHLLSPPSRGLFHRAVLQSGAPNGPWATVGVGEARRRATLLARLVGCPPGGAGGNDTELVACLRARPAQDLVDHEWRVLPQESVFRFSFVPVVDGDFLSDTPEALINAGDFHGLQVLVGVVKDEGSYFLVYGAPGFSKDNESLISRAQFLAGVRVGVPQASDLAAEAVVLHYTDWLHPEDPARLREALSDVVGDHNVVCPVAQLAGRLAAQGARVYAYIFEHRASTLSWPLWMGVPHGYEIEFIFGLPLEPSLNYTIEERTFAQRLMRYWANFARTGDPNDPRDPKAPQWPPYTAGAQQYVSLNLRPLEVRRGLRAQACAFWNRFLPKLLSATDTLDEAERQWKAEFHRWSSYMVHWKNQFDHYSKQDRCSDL

Cholinesterase [4] = molecular target: T1, Cholinesterase; assay: Inhibition of BuChE (unknown origin)
Cholinesterase [5] = molecular target: T1, Cholinesterase; assay: Inhibition of human serum BuChE using butyrylthiocholine iodide as substrate pretreated for 20 mins followed by substrate addition by DTNB reagent based spectrophotometric method
[6] = molecular target: Amyloid-beta precursor protein (Homo sapiens) (UniProt P05067); assay: Inhibition of HFIP-pretreated amyloid beta (1 to 42) (unknown origin) self-induced aggregation at 50 uM after 24 hrs by thioflavin-T fluorescence assay relative to control
[7] = Cytotoxicity against human T67 cells assessed as cell viability at 50 uM after 24 hrs by resazurin dye based spectrofluorimetric method relative to control; conditions: read-out: Activity
[8] = Cytotoxicity against human T67 cells assessed as cell viability at 10 uM after 24 hrs by resazurin dye based spectrofluorimetric method relative to control; conditions: read-out: Activity
Acetylcholinesterase [9] = molecular target: T4, Acetylcholinesterase (Electrophorus electricus, UniProt O42275); assay: Inhibition of electric eel AChE using acetylthiocholine iodide as substrate measured at 12 secs interval for 10 mins by Ellman's method
[10] = Selectivity ratio of IC50 for electric eel AChE to IC50 for equine serum BChE
Cholinesterase [11] = molecular target: T2, Cholinesterase; assay: Inhibition of equine serum BChE using butyrylthiocholine iodide as substrate measured at 12 secs interval for 10 mins by Ellman's method
Rattus norvegicus [12] = assay: In-vivo inhibition of BuChE in Harlan-Wistar rat brain assessed as increase in acetylcholine level at 1.25 mg/kg, ip by microdialysis method relative to control; format: functional
Rattus norvegicus [13] = assay: In-vivo inhibition of BuChE in Harlan-Wistar rat brain assessed as increase in acetylcholine level at 2.5 mg/kg, ip by microdialysis method relative to control; format: functional
Homo sapiens = species: Homo sapiens; assay: Selectivity ratio of IC50 for human erythrocytes AChE to IC50 for human serum BuChE
[14] = Cytotoxicity against human SH-SY5Y cells assessed as cell viability at 25 uM after 24 hrs by MTT assay relative to control; format: cell-based; conditions: read-out: Activity
[15] = molecular target: Amyloid-beta precursor protein (Homo sapiens) (UniProt P05067); assay: Inhibition of amyloid beta (1 to 42) (unknown origin) self-aggregation at 25 uM incubated for 30 mins measured every 5 mins for 14 hrs by thioflavin T fluorescence assay relative to control
Cholinesterase [16] = molecular target: T1, Cholinesterase; assay: Inhibition of human […] BuChE using s-butyrylthiocholine as substrate pretreated for 30 mins followed by substrate addition after 25 mins by spectrophotometric method
Acetylcholinesterase [17] = molecular target: Acetylcholinesterase (Homo sapiens, UniProt P22303); assay: Inhibition of human […] AChE using acetyl-(beta-methyl)thiocholine as substrate pretreated for 30 mins followed by substrate addition after 25 mins by spectrophotometric method
[18] = molecular target: Acetylcholinesterase (Electrophorus electricus) (UniProt O42275); assay: Inhibition of electric eel AChE-induced human amyloid beta (1 to 40 residues) at 100 uM by thiofalvin-T fluorescence assay relative to control
Acetylcholinesterase [19] = molecular target: T4, Acetylcholinesterase; assay: Inhibition of electric eel AChE using acetylthiocholine iodide as substrate pretreated for 6 mins followed by substrate measured at 60 secs interval for 180 secs by Ellman's method
Cholinesterase [20] = molecular target: T2, Cholinesterase; assay: Inhibition of equine serum BuChE using s-butyrylthiocholine iodide as substrate pretreated for 6 mins followed by substrate addition measured at 60 secs interval for 180 secs by Ellman's method
Cholinesterase [21] = molecular target: T2, Cholinesterase; assay: Inhibition of equine serum BuChE using butyrylthiocholine iodide as substrate pretreated for 10 mins followed by substrate addition by DTNB reagent based spectrophotometric method
Cholinesterase [22] = molecular target: T1, Cholinesterase; assay: Inhibition of human BuChE

T2 sequence (P81908 whole entry): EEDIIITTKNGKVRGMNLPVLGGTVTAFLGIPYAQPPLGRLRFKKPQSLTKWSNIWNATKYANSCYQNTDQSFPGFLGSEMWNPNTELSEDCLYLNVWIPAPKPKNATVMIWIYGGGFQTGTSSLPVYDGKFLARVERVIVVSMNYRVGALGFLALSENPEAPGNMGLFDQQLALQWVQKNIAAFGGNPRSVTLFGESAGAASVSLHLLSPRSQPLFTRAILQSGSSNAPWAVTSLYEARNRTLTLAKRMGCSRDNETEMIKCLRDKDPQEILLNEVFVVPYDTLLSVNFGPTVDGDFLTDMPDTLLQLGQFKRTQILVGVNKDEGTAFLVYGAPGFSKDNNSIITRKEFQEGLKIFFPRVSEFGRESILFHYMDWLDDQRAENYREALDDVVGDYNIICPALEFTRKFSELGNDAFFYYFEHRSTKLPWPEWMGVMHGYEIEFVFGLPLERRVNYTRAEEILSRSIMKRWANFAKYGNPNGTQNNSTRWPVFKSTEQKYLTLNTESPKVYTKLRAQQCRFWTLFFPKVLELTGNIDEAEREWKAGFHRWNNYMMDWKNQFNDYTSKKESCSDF
T4 sequence (O42275 whole entry): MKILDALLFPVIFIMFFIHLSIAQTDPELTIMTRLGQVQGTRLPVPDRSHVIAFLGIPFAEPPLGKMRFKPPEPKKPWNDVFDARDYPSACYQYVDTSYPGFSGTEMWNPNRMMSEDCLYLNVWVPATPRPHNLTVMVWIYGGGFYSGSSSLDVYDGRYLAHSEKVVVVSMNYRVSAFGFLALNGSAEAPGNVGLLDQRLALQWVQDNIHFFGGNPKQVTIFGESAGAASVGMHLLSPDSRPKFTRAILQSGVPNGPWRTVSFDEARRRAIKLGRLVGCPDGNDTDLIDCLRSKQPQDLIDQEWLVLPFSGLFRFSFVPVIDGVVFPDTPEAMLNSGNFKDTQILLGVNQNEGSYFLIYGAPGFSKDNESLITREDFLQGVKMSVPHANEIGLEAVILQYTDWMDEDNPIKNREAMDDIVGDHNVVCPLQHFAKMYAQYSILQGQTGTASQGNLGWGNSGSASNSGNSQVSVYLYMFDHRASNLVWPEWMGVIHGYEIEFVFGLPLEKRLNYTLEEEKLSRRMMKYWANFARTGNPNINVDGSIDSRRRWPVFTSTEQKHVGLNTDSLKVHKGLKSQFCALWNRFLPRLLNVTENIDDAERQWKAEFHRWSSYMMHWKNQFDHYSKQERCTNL
T1 sequence (P06276 whole entry): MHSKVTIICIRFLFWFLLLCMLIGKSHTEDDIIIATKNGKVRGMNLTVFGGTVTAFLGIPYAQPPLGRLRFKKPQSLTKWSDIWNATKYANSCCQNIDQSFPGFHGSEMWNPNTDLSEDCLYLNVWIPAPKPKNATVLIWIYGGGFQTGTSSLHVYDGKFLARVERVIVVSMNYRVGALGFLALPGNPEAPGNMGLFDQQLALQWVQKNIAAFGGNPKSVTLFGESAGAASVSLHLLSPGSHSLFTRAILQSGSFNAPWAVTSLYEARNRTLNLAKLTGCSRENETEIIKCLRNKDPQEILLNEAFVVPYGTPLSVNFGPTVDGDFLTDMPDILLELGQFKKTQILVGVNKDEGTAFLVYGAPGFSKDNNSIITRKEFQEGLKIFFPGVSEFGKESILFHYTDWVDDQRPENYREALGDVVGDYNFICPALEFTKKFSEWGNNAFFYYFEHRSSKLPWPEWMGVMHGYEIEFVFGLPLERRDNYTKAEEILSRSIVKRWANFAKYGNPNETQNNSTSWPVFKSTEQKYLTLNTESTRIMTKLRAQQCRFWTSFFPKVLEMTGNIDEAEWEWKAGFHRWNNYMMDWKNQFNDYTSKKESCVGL
Chain of Amyloid-beta precursor protein (Homo sapiens) (P05067 whole entry): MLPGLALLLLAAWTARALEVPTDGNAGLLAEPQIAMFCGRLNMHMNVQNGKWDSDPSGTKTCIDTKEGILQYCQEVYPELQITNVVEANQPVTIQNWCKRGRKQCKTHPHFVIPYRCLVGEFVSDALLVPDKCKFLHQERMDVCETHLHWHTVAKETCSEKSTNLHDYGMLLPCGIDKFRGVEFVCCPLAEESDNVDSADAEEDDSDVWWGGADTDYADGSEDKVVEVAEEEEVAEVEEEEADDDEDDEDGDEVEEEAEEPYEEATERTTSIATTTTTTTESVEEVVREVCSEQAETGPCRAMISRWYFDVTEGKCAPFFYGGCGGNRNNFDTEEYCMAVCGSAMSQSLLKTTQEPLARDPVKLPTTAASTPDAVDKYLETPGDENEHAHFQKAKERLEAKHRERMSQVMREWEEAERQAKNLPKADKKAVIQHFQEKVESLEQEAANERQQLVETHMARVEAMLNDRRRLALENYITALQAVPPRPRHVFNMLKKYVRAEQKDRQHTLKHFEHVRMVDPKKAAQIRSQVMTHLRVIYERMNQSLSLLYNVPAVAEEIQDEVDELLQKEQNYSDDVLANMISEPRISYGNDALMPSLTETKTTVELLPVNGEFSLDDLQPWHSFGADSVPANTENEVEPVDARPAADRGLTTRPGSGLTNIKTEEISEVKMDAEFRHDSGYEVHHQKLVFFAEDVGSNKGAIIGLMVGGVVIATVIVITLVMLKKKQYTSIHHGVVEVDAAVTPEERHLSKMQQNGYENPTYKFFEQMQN
Chain of Acetylcholinesterase (Electrophorus electricus) (O42275 24-633 limits assumed): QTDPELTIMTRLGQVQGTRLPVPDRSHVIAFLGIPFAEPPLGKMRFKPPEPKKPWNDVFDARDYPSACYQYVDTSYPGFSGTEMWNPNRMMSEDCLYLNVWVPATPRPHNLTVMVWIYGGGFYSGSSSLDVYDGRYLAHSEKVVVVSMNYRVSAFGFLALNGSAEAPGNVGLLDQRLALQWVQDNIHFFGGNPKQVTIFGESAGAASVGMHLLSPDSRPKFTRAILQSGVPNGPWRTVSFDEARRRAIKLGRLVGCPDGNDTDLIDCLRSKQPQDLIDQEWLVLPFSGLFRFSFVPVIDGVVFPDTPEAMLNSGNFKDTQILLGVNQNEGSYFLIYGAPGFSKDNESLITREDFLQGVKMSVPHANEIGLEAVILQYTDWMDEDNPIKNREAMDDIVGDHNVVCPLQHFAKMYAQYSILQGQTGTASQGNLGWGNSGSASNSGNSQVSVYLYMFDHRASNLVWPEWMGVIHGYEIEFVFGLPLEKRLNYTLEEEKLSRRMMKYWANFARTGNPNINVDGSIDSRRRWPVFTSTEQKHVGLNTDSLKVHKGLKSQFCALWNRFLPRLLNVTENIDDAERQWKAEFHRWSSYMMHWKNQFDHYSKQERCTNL
Chain of Acetylcholinesterase (Homo sapiens, UniProt P22303) (P22303 whole entry, the tested form may be a part): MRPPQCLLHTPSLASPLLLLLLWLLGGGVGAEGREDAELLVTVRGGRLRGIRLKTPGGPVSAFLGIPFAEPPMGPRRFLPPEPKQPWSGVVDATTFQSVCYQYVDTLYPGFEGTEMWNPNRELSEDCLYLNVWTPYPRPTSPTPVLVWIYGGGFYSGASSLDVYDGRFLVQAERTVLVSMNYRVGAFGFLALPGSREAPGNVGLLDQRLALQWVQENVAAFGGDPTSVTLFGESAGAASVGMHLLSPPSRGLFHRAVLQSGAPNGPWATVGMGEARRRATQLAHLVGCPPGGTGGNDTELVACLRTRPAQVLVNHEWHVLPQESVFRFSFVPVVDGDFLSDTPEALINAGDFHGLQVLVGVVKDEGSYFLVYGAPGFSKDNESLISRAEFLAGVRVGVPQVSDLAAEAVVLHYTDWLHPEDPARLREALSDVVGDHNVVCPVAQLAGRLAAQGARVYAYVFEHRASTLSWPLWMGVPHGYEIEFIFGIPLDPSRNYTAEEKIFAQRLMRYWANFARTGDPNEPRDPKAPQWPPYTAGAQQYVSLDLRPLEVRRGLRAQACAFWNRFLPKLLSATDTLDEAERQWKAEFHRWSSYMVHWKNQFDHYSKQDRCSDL

`COc1ccc(N[C@@H]2CCC[C@@H](OC(=O)N(C)C)C2)cc1` gave an IC50 (Cholinesterase [1]) of 110 µM.

`CC(=O)N(CCCNc1c2c(nc3ccccc13)CCCC2)CCNc1c2c(nc3ccccc13)CCCC2` gave an IC50 (Cholinesterase [2]) of 0.002 µM and an IC50 (Acetylcholinesterase [3]) of 1.5 µM.

Compound `Oc1ccc(-c2cnc3ccccc3n2)cc1` has an IC50 (Cholinesterase [4]) of 7.7 µM.

Compound `COc1ccccc1CN1CCN(Cc2ccc3cccnc3c2O)CC1` has an IC50 (Cholinesterase [5]) of 5.71 µM, an inhibition [6] of 44.2% and a viability at 24 h, 50 µM [7] of 81%. The viability at 24 h, 10 µM [8] was greater than 90%.

Compound `Oc1ccccc1/C=C/c1cc(O)c(F)c(O)c1` has an IC50 (Acetylcholinesterase [9]) of 960 µM, a Ratio IC50 [10] of 96 and an IC50 (Cholinesterase [11]) of 10 µM.

`COc1ccc(N[C@H]2CCC[C@@H](OC(=O)N(C)C)C2)cc1` gave an IC50 (Cholinesterase [1]) of 110 µM.

In the case of `c1ccc2c(NCCCCCCCSc3c4c(nc5ccccc35)CCCC4)c3c(nc2c1)CCCC3`, the IC50 (Cholinesterase [2]) is reported as 0.035 µM and the IC50 (Acetylcholinesterase [3]) is reported as 0.34 µM.

`CC(C)c1ccc(NC(=O)Oc2ccc3c(c2)[C@]2(C)CCN(CCc4ccccc4)[C@@H]2N3C)cc1` gave an inhibition in vivo at 1.25 mg/kg (Rattus norvegicus [12]) of 180% and an inhibition in vivo at 2.5 mg/kg (Rattus norvegicus [13]) of 290%.

`COc1ccc(CNc2c3c(nc4ccccc24)CCCC3)cc1OC` showed a Ratio IC50 (Homo sapiens) of 110, a viability at 24 h, 25 µM [14] of 58.9% and an inhibition [15] of 40%.

For `CC(C)c1ccc(NC(=O)Oc2ccc3c(c2)[C@]2(C)CCC(C)[C@@H]2C3C)cc1` (stereo partly drawn), the IC50 (Cholinesterase [16]) was 0.05 µM and the IC50 (Acetylcholinesterase [17]) was 0.76 µM.

With `Oc1ccc(/C=C/c2cc(O)cc(O)c2)cc1` [RESVERATROL] the IC50 (Acetylcholinesterase [9]) was greater than 1000 µM and the IC50 (Cholinesterase [11]) was 400 µM.

`O=C(NCCCCCCNc1c2c(nc3ccccc13)CCCCC2)c1cc(O)c2c(c1)C(=O)c1cccc(O)c1C2=O` gave an inhibition [18] of 64.8%, an IC50 (Acetylcholinesterase [19]) of 0.13 µM and a Ratio IC50 [10] of 11. For the same compound, the IC50 (Cholinesterase [20]) was 0.011 µM.

With `CCN1CCc2c(c3cc(F)ccc3n2CCC(=O)N2c3ccccc3Sc3ccccc32)C1` the IC50 (Cholinesterase [21]) was 0.39 µM.

With `c1ccc2c(SCCCCCCCSc3c4c(nc5ccccc35)CCCC4)c3c(nc2c1)CCCC3` the IC50 (Cholinesterase [2]) was 0.38 µM and the IC50 (Acetylcholinesterase [3]) was greater than 10 µM.

Compound `c1ccc(CNc2c3c(nc4ccccc24)CCCC3)nc1` has a Ratio IC50 (Homo sapiens) of 957.

`COc1ccc(Cn2cc(CNc3c4c(nc5ccccc35)CCCC4)nn2)cc1` gave an IC50 (Cholinesterase [22]) of 0.055 µM.

Work on `CC(C(=O)NCCCCCCCCNc1c2c(nc3ccccc13)CCCC2)c1ccc(-c2ccccc2)c(F)c1` (stereo not drawn) yielded a Ratio IC50 [10] of 16.4.

Source: ChEMBL document CHEMBL4024719, “Recent progress in the identification of selective butyrylcholinesterase inhibitors for Alzheimer's disease” (Eur J Med Chem, 2017)
